Test results taken from patent US8536201B2, “Pesticidal arylpyrrolidines” (Bayer Intellectual Property GmbH, priority 2009, dated 2013).

Tests used:
Type in all cases: in vivo
Spodoptera litura [1] = experiment: Tobacco cutworm (Spodoptera litura) larvae, sweet potato leaf dip test; settings: third instar larvae, treated sweet potato leaves, after 7 days
Procedure: Unless not mentioned otherwise, the test solutions were prepared as follows:
Solvent: dimethyl formamide, 3 parts by weight
Emulsifier: polyoxyethylene alkyl phenyl ether, 1 part by weight
To prepare the test solution, 1 part by weight of an active compound is mixed with the above-mentioned amount of solvent containing the above-mentioned amount of emulsifier, and the mixture is diluted with water to the desired concentration.
BIOLOGICAL TEST EXAMPLE 1.1
Tobacco Cutworm (Spodoptera litura) Larvae
Leaves of sweet potato were immersed in the test solution at the appropriate concentration, and the leaves were dried in air. The leaves were then placed in a petri dish having a diameter of 9 cm, and ten Spodoptera litura at third instar larvae were released therein. The petri dishes were placed in a temperature-controlled chamber at 25° C. After 2 days and 4 days more sweet potato leaves were added. After 7 days, the number of dead larvae was counted to calculate the insecticidal activity. An insecticidal activity of 100% means that all larvae were killed, whereas an insecticidal activity of 0% means that no larva was killed. In the current test, the results of two petri dishes for each treatment were averaged.

Spodoptera litura [2] = experiment: Tobacco cutworm (Spodoptera litura) larvae using artificial diet; settings: 20 ppm, 3rd-instar larvae
Procedure: BIOLOGICAL TEST EXAMPLE 1.2
Tobacco Cutworm (Spodoptera litura) Larvae Using Artificial Diet
2.3 g of artificial diet powder is put into a PET cup (7.5 cm diameter, 4 cm depth). The powder was leveled to make a layer in the bottom of the cup. 5 ml of a chemical solution is poured onto the powder and spread uniformly. The cup with treated diet powder is placed quiet to let the diet jell. Into each testing cup five 3rd-instar larvae were released. The testing cup is closed with the lid and placed in a temperature-controlled room at 25° C. and 50-60% R.H., 16L8D lighting conditions.
The mortality in % was determined according to the following criteria:
1 larva dead: 20% Efficacy
5 larvae dead: 100% Efficacy

Tetranychus urticae = experiment: Two-spotted spider mite Tetranychus urticae spray test on kidney bean; settings: adult mites, after 7 days
Procedure: BIOLOGICAL TEST EXAMPLE 2
Two-Spotted Spider Mite Tetranychus urticae
50 to 100 adult mites of Tetranychus urticae were inoculated to leaves of kidney bean at two-leaf stage planted in a pot of 6 cm in diameter. After one day, test solution at the appropriate concentration was sprayed thereon in a sufficient amount using a spray gun. After the spraying, the plant pot was placed inside a greenhouse, and after 7 days, the acaricidal activity was calculated. An acaricidal activity of 100% means that all mites were killed, an acaricidal activity of 0% means that no mite was killed.

Aulacophora femoralis = experiment: Cucurbit leaf beetle (Aulacophora femoralis) cucumber leaf dip test; settings: second instar larvae, treated cucumber leaves, after 7 days
Procedure: BIOLOGICAL TEST EXAMPLE 3
Cucurbit Leaf Beetle (Aulacophora femoralis)
Leaves of cucumber were immersed in the test solution at the appropriate concentration, and the leaves were dried in air. The leaves were then put in a plastic cup containing sterilized black soil and five Aulacophora femoralis at second instar larvae were released in the cup. The cups were placed in a temperature-controlled chamber at 25° C. After 7 days, the number of dead larvae was counted, and thus the insecticidal activity was calculated. An insecticidal activity of 100% means that all larvae were killed, whereas an insecticidal activity of 0% means that no larva was killed.

Musca domestica = Musca domestica test; settings: for activity (mortality in %): 100 ppm, adults, sugar/compound sponge, after 2 days
Procedure: BIOLOGICAL TEST EXAMPLE 9
(§1) Solvent: Dimethyl Sulfoxide
To produce a suitable preparation of active compound, 10 mg of active compound are dissolved in 0.5 ml solvent, and the concentrate is diluted with water to the desired concentration. Prior to the assay, a piece of kitchen sponge is soaked with a mixture of sugar and compound solution and placed into a container. 10 adults (Musca domestica) are placed into the container and closed with a perforated lid.
After 2 days mortality in % is determined. 100% means that all the flies have been killed; 0% means that none of the flies have been killed.

Boophilus microplus = Boophilus microplus (dip)
Procedure: BIOLOGICAL TEST EXAMPLE 5
Boophilus microplus (Dip)
as §1
To produce a suitable preparation of active compound, 10 mg of active compound are dissolved in 0.5 ml solvent, and the concentrate is diluted with water to the desired concentration. Eight to ten adult engorged female Boophilus microplus ticks are placed in perforated plastic beakers and immersed in aqueous compound solution for one minute. Ticks are transferred to a filter paper in a plastic tray. Egg deposition of fertile eggs is monitored after. After 7 days mortality in % is determined. 100% means that all the ticks have been killed; 0% means that none of the ticks have been killed.

Ctenocephalides felis = Ctenocephalides felis test (CTECFE), blood feeding; settings: Ctenocephalides felis, in Bos taurus, 48 h, read-out: activity (mortality in %)
Procedure: BIOLOGICAL TEST EXAMPLE 7
Ctenocephalides felis—Test (CTECFE)
as §1
To produce a suitable preparation of active compound, 10 mg of active compound are dissolved in 0.5 ml solvent, and the concentrate is diluted with cattle blood to the desired concentration. Approximately 20 adult unfed (Ctenocephalides felis) are placed in flea chambers. The blood chamber, sealed with parafilm on the bottom, are filled with cattle blood supplied with compound solution and placed on top of the flea chamber, so that the fleas are able to suck the blood. The blood chamber is heated to 37° C. whereas the flea chamber is kept at room temperature.
After 2 days mortality in % is determined. 100% means that all the fleas have been killed; 0% means that none of the fleas have been killed.

Lucilia cuprina = Lucilia cuprina (48 hrs) larval test; settings: read-out: activity (larval mortality in %)
Procedure: BIOLOGICAL TEST EXAMPLE 8
Species: Lucilia cuprina 1st Instar Larvae (Age 24 Hrs)
as §1
10 mg active compound are dissolved in 0.5 ml dimethyl sulfoxide. Serial dilutions are made to obtain the desired rates. Approximately 20 Lucilia cuprina 1st instar larvae are transferred into a test tube containing 1 cm^3 of minced horse meat and 0.5 ml aqueous dilution of test compound.
After 2 days larval mortality in % is recorded. 100% efficacy=all larvae are killed, […].

| Structure (SMILES) | insecticidal activity (Spodoptera litura [1]; 20 ppm) [%] | insecticidal activity (Spodoptera litura [2]) [%] | insecticidal activity (Tetranychus urticae; 20 ppm) [%] | insecticidal activity (Aulacophora femoralis; 20 ppm) [%] | activity (mortality in %) (Musca domestica) [%] | insecticidal activity (Spodoptera litura [1]; 0.8 ppm) [%] | insecticidal activity (Tetranychus urticae; 4 ppm) [%] | insecticidal activity (Aulacophora femoralis; 4 ppm) [%] | mortality at 100 ppm (Boophilus microplus; Rhipicephalus microplus, 168 h, read-out: activity (mortality in %)) [%] | mortality at 100 ppm (Ctenocephalides felis) [%] | mortality at 100 ppm (Lucilia cuprina) [%] | mortality at 100 ppm (Musca domestica; Musca domestica, 48 h, read-out: activity (mortality in %)) [%] | insecticidal activity (Aulacophora femoralis; 100 ppm) [%] | activity (mortality in %) (Boophilus microplus; 100 ppm, adult engorged females immersed one minute, after 7 days) [%] |
| --- | --- | --- | --- | --- | --- | --- | --- | --- | --- | --- | --- | --- | --- | --- |
| CC(NC(=O)C1CC1)c1ccc(N2CCC(c3cc(Cl)cc(Cl)c3)(C(F)(F)F)C2)cc1 (racemic) [Compound 3] | 100 | 100 | 100 | 100 | 90 |  |  |  |  |  |  |  |  |  |
| CC(NC(=O)C1CC1)c1ccc(N2CCC(c3cc(Cl)c(Cl)c(Cl)c3)(C(F)(F)F)C2)cc1 (racemic) [Compound 8] | 100 | 100 | 100 | 100 | 90 |  |  |  |  |  |  |  |  |  |
| CCC(=O)NC(C)c1ccc(N2CCC(c3cc(C(F)(F)F)cc(C(F)(F)F)c3)(C(F)(F)F)C2)cc1 (racemic) [Compound 10] | 100 | 100 | 100 | 100 | 90 |  |  |  |  |  |  |  |  |  |
| CC(=O)N[C@@H](C)c1ccc(N2CCC(c3cc(C(F)(F)F)cc(C(F)(F)F)c3)(C(F)(F)F)C2)cc1 (stereo partly drawn) [Compound 9-b] | 100 | 100 |  | 100 | 90 |  |  |  |  |  |  |  |  |  |
| C[C@H](NC(=O)C1CC1)c1ccc(N2CCC(c3cc(C(F)(F)F)cc(C(F)(F)F)c3)(C(F)(F)F)C2)cc1 (stereo partly drawn) [Compound 11-b, N-[(1S)-1-(4-{3-[3,5-bis(trifluoromethyl)phenyl]-3-(trifluoromethyl)pyrrolidin-1-yl}phenyl)ethyl]cyclopropanecarboxamide] | 100 |  | 100 | 100 |  | 100 | 100 | 100 | 100 | 100 | 100 | 100 |  |  |
| COCCC(=O)N[C@@H](C)c1ccc(N2CCC(c3cc(C(F)(F)F)cc(C(F)(F)F)c3)(C(F)(F)F)C2)cc1 (stereo partly drawn) [Compound 15-b] |  | 100 | 100 |  |  |  |  |  |  |  |  |  | 100 | 80 |
